Reference: patent EP4678638A1, “NEW E3 UBIQUITIN LIGASE LIGAND, PROTEIN DEGRADATION AGENT AND USE THEREOF” (priority 2023, dated 2024)
Where two headings read alike, the source gives them in different places.

Legend:
[1] = system: MV-4-11; assay: CCK-8 proliferation, MV-4-11; format: cell-based, Human; conditions: CCK-8, 72 or 96 hours, read-out: Inhibitory activity (IC50) on tumor cell proliferation, MV-4-11
How it was run: (§1)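 Cells seeded, then after 24 h treated with 10 concentrations (top 10 µM, 5-fold serial dilution) for a line-specific time at 37°C, 5% CO2. Viability read by CCK-8; IC50 fitted from growth-inhibition curves.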

[2] = system: CCRF-CEM; assay: CCK-8 proliferation, CCRF-CEM; format: cell-based, Human; conditions: CCK-8, 96 hours, read-out: Inhibitory activity (IC50) on tumor cell proliferation, CCRF-CEM
How it was run: as §1

[3] = system: Kasumi-1; assay: CCK-8 proliferation, Kasumi-1; format: cell-based, Human; conditions: read-out: Inhibitory activity (IC50) on tumor cell proliferation, Kasumi-1
Experimental: (§2) The tumor cells used herein were cultured in a cell culture medium listed in table A1 at 37°C in an incubator with 5% CO2. Prior to experimentation, all cell lines used were correctly identified by STR profiling, and tested negative for mycoplasma contamination using a mycoplasma detection kit through routine screenings. Table A1. Tumor cells and cell culture medium used in the present disclosure
(§3) IC50 values of the compounds of the present disclosure (including the compounds in Table 1, and compounds of examples) were measured using the Meilun Cell Counting Kit-8 kit from Dalian Meilun Biotech Co., Ltd. Assay details are as follows: tumor cells were seeded in a 96-well plate at a density listed in Table A2. After 24h, 100 µL of the inoculated cells were treated with 0.5µL of the compounds of the present disclosure (including the compounds in Tables 1 and 2, and compounds of examples) at 10 different successively decreasing concentrations (starting at the highest concentration of 10µM; 5-fold serial dilutions). After the cells were treated with the compounds of the present disclosure for a period of time, the cell viability detection reagent was added to the culture medium for cell viability assessment according to the instructions provided with the CCK-8 kit. […] The growth inhibition of the compounds of the present disclosure on cells was plotted by Prism Graphpad software, and the IC50 values of the compounds of the present disclosure were calculated therefrom. […] Seeding protocol and treatment time for tumor cells

[4] = system: PC-9; assay: CCK-8 proliferation, PC-9; format: cell-based, Human; conditions: Homo sapiens, PC-9; CCK-8; 96 hours; read-out: Inhibitory activity (IC50) on tumor cell proliferation, PC-9
Experimental: as §2, §3

[5] = system: HCC827; assay: CCK-8 proliferation, HCC827; format: cell-based, Human; conditions: Homo sapiens, HCC827; CCK-8; 96 hours; read-out: Inhibitory activity (IC50) on tumor cell proliferation, HCC827
Experimental: as §2, §3

[6] = system: EGFR; assay: Western blot degradation of EGFR (H1975 Cell); format: cell-based, Human; conditions: Table D2
How it was run: (§4)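 Quantification by ImageJ densitometry of Western blot bands: DC50 is the fitted concentration halving band intensity relative to DMSO. Percent remaining uses internal-control normalization, and degradation rate is its complement.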

[7] = system: H1975; assay: CCK-8 proliferation, NCI-H1975 (H1975); format: cell-based, Human; conditions: Homo sapiens, NCI-H1975; CCK-8; 96 hours; read-out: Inhibitory activity (IC50) on tumor cell proliferation, H1975
How it was run: as §1

[8] = system: MCF7; assay: CCK-8 proliferation, MCF7 (MCF-7); format: cell-based; conditions: Homo sapiens, MCF7; CCK-8; read-out: Inhibitory activity (IC50) on tumor cell proliferation, MCF7
How it was run: as §1

[9] = biological target: T1, CDK4 (Homo sapiens, UniProt P11802); assay: Western blot degradation of CDK4 (MDA-MB-231 Cell); format: cell-based; conditions: Table D3
T1 construct: evaluate the effects of the compounds of the present disclosure on the expression of target proteins in cells; endogenous in cells; host or cells: MDA-MB-231
How it was run: as §4

[10] = biological target: T2, CDK6 (Homo sapiens, UniProt Q00534); assay: Western blot degradation of CDK6 (MDA-MB-231 Cell); format: cell-based; conditions: Table D3
T2 construct: evaluate the effects of the compounds of the present disclosure on the expression of target proteins in cells; endogenous in cells; host or cells: MDA-MB-231
How it was run: as §4

[11] = Homo sapiens, Kasumi 1, 72 hours

T2 sequence (Q00534 whole entry): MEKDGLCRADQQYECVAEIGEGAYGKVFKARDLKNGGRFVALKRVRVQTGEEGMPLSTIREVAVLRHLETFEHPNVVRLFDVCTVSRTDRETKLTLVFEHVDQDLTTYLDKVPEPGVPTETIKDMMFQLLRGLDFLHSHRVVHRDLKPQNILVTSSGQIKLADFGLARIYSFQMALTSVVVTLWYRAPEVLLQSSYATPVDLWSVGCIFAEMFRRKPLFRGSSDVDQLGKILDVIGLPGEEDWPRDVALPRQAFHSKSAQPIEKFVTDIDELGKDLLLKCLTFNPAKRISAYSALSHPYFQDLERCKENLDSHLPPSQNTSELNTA
T1 sequence (P11802 whole entry): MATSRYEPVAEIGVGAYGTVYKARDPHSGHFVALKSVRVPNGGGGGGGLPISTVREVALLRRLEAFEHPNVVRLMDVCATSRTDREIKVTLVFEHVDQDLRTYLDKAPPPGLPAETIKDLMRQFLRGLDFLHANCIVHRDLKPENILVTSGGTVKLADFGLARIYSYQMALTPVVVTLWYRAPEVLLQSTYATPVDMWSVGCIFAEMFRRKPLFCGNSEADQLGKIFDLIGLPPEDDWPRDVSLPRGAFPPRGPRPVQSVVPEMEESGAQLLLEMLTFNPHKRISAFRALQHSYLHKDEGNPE

IC50 [4] [nM] | IC50 [5] [nM] | IC50 [7] [nM] | Compound | Degradation of substrate protein EGFR (substrate protein remaining %) [6] | also measured
 |  |  | CN1CCN(Cc2ccc(NC(=O)c3[nH]ncc3Nc3ncnc4[nH]ccc34)cc2)CC1 [FN-1501, reference compound] |  | IC50 [1]: 1 to 10 nM; IC50 [2]: 100 to 500 nM; IC50 ([3]; 72 hours): 100 to 500 nM
10 to 50 | 10 to 50 |  | O=C1CCC(c2ccc(CN3CCN(c4ccc(Nc5ncc6nc(Nc7ccccc7)n(C7CCCC7)c6n5)cc4)CC3)cc2)C(=O)N1 (centres unmarked) [GT-03740, 3-(4-((4-(4-((9-cyclopentyl-8-(phenylamino)-9H-purin-2-yl)amino)phenyl)piperazin-1-yl)methyl)phenyl)piperidine-2,6-dione] | A (A is defined as 0% ≤ substrate protein remaining % ≤ 80%) | 
10 to 50 | 10 to 50 |  | O=C1CCC(c2ccc(CN3CCN(c4ccc(Nc5ncc6nc(Nc7ccccc7)n(C7CCCC7)c6n5)cc4)CC3)cc2F)C(=O)N1 (centres unmarked) [GT-03741, 3-(4-((4-(4-((9-cyclopentyl-8-(phenylamino)-9H-purin-2-yl)amino)phenyl)piperazin-1-yl)methyl)-2-fluorophenyl)piperidine-2,6-dione] |  | 
1 to 10 | 1 to 10 | 100 to 500 | CN(Cc1ccc(C2CCC(=O)NC2=O)cc1)C1CCN(c2ccc(Nc3ncc4nc(Nc5ccccc5)n(C5CCCC5)c4n3)cc2)CC1 (centres unmarked) [GT-03863, 3-(4-(((1-(4-((9-cyclopentyl-8-(phenylamino)-9H-purin-2-yl)amino)phenyl)piperidin-4-yl)(methyl)amino)methyl)phenyl)piperidine-2,6-dione] | A (A is defined as 0% ≤ substrate protein remaining % ≤ 80%) | 
1 to 10 | 1 to 10 | 100 to 500 | CN(Cc1ccc(C2CCC(=O)NC2=O)c(F)c1)C1CCN(c2ccc(Nc3ncc4nc(Nc5ccccc5)n(C5CCCC5)c4n3)cc2)CC1 (centres unmarked) [GT-03864, 3-(4-(((1-(4-((9-cyclopentyl-8-(phenylamino)-9H-purin-2-yl)amino)phenyl)piperidin-4-yl)(methyl)amino)methyl)-2-fluorophenyl)piperidine-2,6-dione] | A (A is defined as 0% ≤ substrate protein remaining % ≤ 80%) | 
1 to 10 | 1 to 10 | 100 to 500 | O=C1CCN(c2ccc(CN3CCN(c4ccc(Nc5ncc6nc(Nc7ccccc7)n(C7CCCC7)c6n5)cc4)CC3)cc2)C(=O)N1 [GT-05837, 1-(4-((4-(4-((9-cyclopentyl-8-(phenylamino)-9H-purin-2-yl)amino)phenyl)piperazin-1-yl)methyl)phenyl)dihydropyrimidine-2,4(1H,3H)-dione] |  | 
1 to 10 | 1 to 10 | 100 to 500 | O=C1CCN(c2cccc(CN3CCN(c4ccc(Nc5ncc6nc(Nc7ccccc7)n(C7CCCC7)c6n5)cc4)CC3)c2)C(=O)N1 [GT-05838, 1-(3-((4-(4-((9-cyclopentyl-8-(phenylamino)-9H-purin-2-yl)amino)phenyl)piperazin-1-yl)methyl)phenyl)dihydropyrimidine-2,4(1H,3H)-dione] | A (A is defined as 0% ≤ substrate protein remaining % ≤ 80%) | 
1 to 10 | 10 to 50 | 100 to 500 | O=C1CCN(c2ccc(CN3CCN(c4ccc(Nc5ncc6nc(Nc7ccccc7)n(C7CCCC7)c6n5)cc4)CC3)nc2)C(=O)N1 [GT-05839, 1-(6-((4-(4-((9-cyclopentyl-8-(phenylamino)-9H-purin-2-yl)amino)phenyl)piperazin-1-yl)methyl)pyridin-3-yl)dihydropyrimidine-2,4(1H,3H)-dione] | A (A is defined as 0% ≤ substrate protein remaining % ≤ 80%) | 
10 to 50 | 10 to 50 |  | O=C1CCC(Nc2cccc(CN3CCN(c4ccc(Nc5ncc6nc(Nc7ccccc7)n(C7CCCC7)c6n5)cc4)CC3)c2)C(=O)N1 (centres unmarked) [GT-05841, 3-((3-((4-(4-((9-cyclopentyl-8-(phenylamino)-9H-purin-2-yl)amino)phenyl)piperazin-1-yl)methyl)phenyl)amino)piperidine-2,6-dione] | A (A is defined as 0% ≤ substrate protein remaining % ≤ 80%) | 
1 to 10 | 10 to 50 | 100 to 500 | CN(Cc1ccc(N2CCC(=O)NC2=O)nc1)C1CCN(c2ccc(Nc3ncc4nc(Nc5ccccc5)n(C5CCCC5)c4n3)cc2)CC1 [GT-05871, 1-(5-(((1-(4-((9-cyclopentyl-8-(phenylamino)-9H-purin-2-yl)amino)phenyl)piperidin-4-yl)(methyl)amino)methyl)pyridin-2-yl)dihydropyrimidine-2,4(1H,3H)-dione] |  | 
10 to 50 | 10 to 50 |  | O=C1CCC(Nc2cccc(CN3CCN(C4CCN(c5ccc(Nc6ncc7nc(Nc8ccccc8)n(C8CCCC8)c7n6)cc5)CC4)CC3)c2)C(=O)N1 (centres unmarked) [GT-05943, 3-((3-((4-(1-(4-((9-cyclopentyl-8-(phenylamino)-9H-purin-2-yl)amino)phenyl)piperidin-4-yl)piperazin-1-yl)methyl)phenyl)amino)piperidine-2,6-dione] | A (A is defined as 0% ≤ substrate protein remaining % ≤ 80%) | 
 |  |  | Cc1nc2c(F)cc(-c3nc(Nc4ccc(CN5CCN(Cc6ccc(N7CCC(=O)NC7=O)nc6)CC5)cn4)ncc3F)cc2n1C(C)C [GT-06668, 1-(5-((4-((6-((5-fluoro-4-(4-fluoro-1-isopropyl-2-methyl-1H-benzo[d]imidazol-6-yl)pyrimidin-2-yl)amino)pyridin-3-yl)methyl)piperazin-1-yl)methyl)pyridin-2-yl)dihydropyrimidine-2,4(1H,3H)-dione] |  | IC50 [8]: 50 to 100 nM; IC50 ([1]; Homo sapiens, MV4-11): 50 to 100 nM; IC50 [3, 11]: 100 to 500 nM; Degradation of substrate protein CDK4 (substrate protein remaining %) [9]: A (A is defined as 0% ≤ substrate protein remaining % ≤ 80%); Degradation of substrate protein CDK6 (substrate protein remaining %) [10]: A (A is defined as 0% ≤ substrate protein remaining % ≤ 80%)
 |  |  | Cc1cc(S(=O)(=O)N2CCN(Cc3ccc(N4CCC(=O)NC4=O)nc3)CC2)ccc1Nc1ncc(Br)c(Nc2cccc(F)c2C(N)=O)n1 [GT-06834, 2-((5-bromo-2-((4-((4-((6-(2,4-dioxotetrahydropyrimidin-1(2H)-yl)pyridin-3-yl)methyl)piperazin-1-yl)sulfonyl)-2-methylphenyl)amino)pyrimidin-4-yl)amino)-6-fluorobenzamide] |  | IC50 ([1]; Homo sapiens, MV4-11): 100 to 500 nM; IC50 ([2]; Homo sapiens, CCRF-CEM): 500 to 1000 nM; IC50 [3, 11]: 500 to 1000 nM
 |  |  | Cc1ccsc1C(=O)n1nc(Nc2ccc(S(=O)(=O)N3CCN(Cc4ccc(N5CCC(=O)NC5=O)cc4)CC3)cc2)nc1N [GT-06856, 1-(4-((4-((4-((5-amino-1-(3-methylthiophene-2-carbonyl)-1H-1,2,4-triazol-3-yl)amino)phenyl)sulfonyl)piperazin-1-yl)methyl)phenyl)dihydropyrimidine-2,4(1H,3H)-dione] |  | IC50 ([1]; Homo sapiens, MV4-11): 100 to 500 nM; IC50 ([2]; Homo sapiens, CCRF-CEM): 500 to 1000 nM; IC50 [3, 11]: 500 to 1000 nM
 |  |  | Cc1ccsc1C(=O)n1nc(Nc2ccc(S(=O)(=O)N3CCN(Cc4ccc(N5CCC(=O)NC5=O)nc4)CC3)cc2)nc1N [GT-06861, 1-(5-((4-((4-((5-amino-1-(3-methylthiophene-2-carbonyl)-1H-1,2,4-triazol-3-yl)amino)phenyl)sulfonyl)piperazin-1-yl)methyl)pyridin-2-yl)dihydropyrimidine-2,4(1H,3H)-dione] |  | IC50 ([1]; Homo sapiens, MV4-11): 100 to 500 nM; IC50 ([2]; Homo sapiens, CCRF-CEM): 500 to 1000 nM; IC50 [3, 11]: 500 to 1000 nM
